In US4395402A, “Analgesic agent” (Zaidan Hojin Biseibutsu Kagaku Kankyu Kai, priority 1980, dated 1983):

Columns and labels:
enkephalinase = biological target: T1, enkephalinase (Rattus norvegicus, UniProt P07861); test: Inhibitory activity against enkephalinase (Test 1); format: biochemical; conditions: for Inhibitory activity to enkephalinase ID50: partially purified enkephalinase from rat brain corpus striatum, substrate methionine-enkephaline, 37° C., 1 hour, HPLC of Tyr-Gly-Gly
T1 construct: homogenizing corpus striatum of rat brain and by partial purification of the brain homogenate; from tissue; host or cells: corpus striatum of rat brain
T1 sequence (P07861 2-750 limits assumed): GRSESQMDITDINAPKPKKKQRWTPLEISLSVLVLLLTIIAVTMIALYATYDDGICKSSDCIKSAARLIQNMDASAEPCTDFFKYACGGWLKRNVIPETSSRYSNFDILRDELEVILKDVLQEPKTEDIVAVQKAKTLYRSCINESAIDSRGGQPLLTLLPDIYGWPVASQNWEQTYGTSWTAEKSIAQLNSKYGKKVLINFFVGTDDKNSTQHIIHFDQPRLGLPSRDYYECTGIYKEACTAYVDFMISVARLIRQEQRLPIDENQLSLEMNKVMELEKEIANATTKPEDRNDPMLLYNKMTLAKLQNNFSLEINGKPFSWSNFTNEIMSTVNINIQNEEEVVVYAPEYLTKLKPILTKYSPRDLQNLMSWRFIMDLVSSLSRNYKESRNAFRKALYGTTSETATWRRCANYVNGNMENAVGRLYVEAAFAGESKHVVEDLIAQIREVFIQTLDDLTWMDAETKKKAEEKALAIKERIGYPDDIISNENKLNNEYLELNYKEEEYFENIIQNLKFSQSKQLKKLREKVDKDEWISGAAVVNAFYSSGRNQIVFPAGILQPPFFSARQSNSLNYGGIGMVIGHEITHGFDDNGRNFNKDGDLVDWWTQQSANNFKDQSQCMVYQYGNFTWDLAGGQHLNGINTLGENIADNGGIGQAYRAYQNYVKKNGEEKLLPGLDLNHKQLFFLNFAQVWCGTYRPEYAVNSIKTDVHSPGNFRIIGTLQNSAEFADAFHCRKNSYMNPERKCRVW
Method: To the solution of the test compound so prepared was added the enkephalinase, followed by incubation for five minutes at ambient temperature and further by addition of methionine-enkephaline as the substrate. The admixture so obtained was incubated at 37° C. for 1 hour and then subjected to a high-performance liquid chromatography in such a manner that the Tyr-Gly-GLy (a fragment of the methionine-enkephaline) formed by the enzymatic degradation of methionine-enkephaline was isolated in some fractions of the eluate and the quantity of Tyr-Gly-GLy was determined by an electro-chemically analysing detector.

Wistar rats = test: Enhancement of morphine analgesia, tail-flick latency (Test 2); format: in vivo, rat
Method: To Wistar rats (10 week aged, male, body weight 250-300 g) was given intraperitoneally morphine at a dose of 0.5 mg/kg, and these rats receiving the morphine were classified into the group of morphine analgesia-effective rats and the group of morphine analgesia-non-effectiverats according to the classification method described in the "Showa Igakukai Zasshi" Vol. 39, No. 5, pages 537-542 (1979). […] The effect of analgesia was evaluated according to the method of tail-flick latency of rats described in the "Showa Igakukai Zasshi" Vol. 39, No. 5, pages 537-542 (1979). The evaluation of pain threshold of rats according to the tail-flick latency method was made as follows: Radiant heat stimulus was applied to the region of the rat tail which positioned 1 cm away from the tail tip and which had been colored black with a black-dye, and the time of latency involved in the tail flick, namely the period of time lapsing between the time of application of the heat stimulus and the time of the reflective flick response of the tail was measured. The quantity of the heat applied was so controlled that the average time of latency of the tail-flick response appearing in the control group of rats (receiving not the test compound but the morphine) was about 2.0 seconds. The tests were accomplished as long as the maximum value for the tail-flick latency was 7.0 seconds or less, as otherwise the skin of the rat tail could be damaged by the application of heat. In other words, if the time for the tail-flick latency was longer than 7.0 seconds, the tests were stopped to prevent the damage of the rat tail. The radiant heat stimulus was repeated 5 times for each test rat at an interval of 15 minutes and the times of latency in the flick response of the tail measured in each test were averaged. In each test, 5 rats were used.
The difference in the time of the tail-flick latency between the test rats (receiving 250 mg/kg of the test compound plus 0.5 mg/kg of morphine) and the control rats (receiving 0.5 mg/kg of morphine alone) was calculated, and the effect for enhancement of morphine analgesia was estimated in term of the value of percentages which were calculated by the following equation: [formula]

ICR-strain mice = conditions: 2 g/kg intraperitoneally, 6 mice per group
rats = test: Analgesic activity of test compound administered alone intracisternally, tail-flick latency (Test 3); format: in vivo, rat; conditions: for Analgesic activity (%) (increase in tail-flick latency): no morphine
Method: Analgesic activity was evaluated in term of the value of percentages of increase in the tail-flick latency of the test rats receiving the test compound, as compared to the control rats receiving no test compound.
The test as above was repeated with 2 mcg/kg of naloxone (a specific antogonizer to morphine) being intraperitoneally given into the test rats simultaneously to the intracisternal administration of the bestatin-related compound under test.

[1] = 250 mg/kg test compound i.p. + 0.5 mg/kg morphine i.p., morphine analgesia-non-effective rats, versus 0.5 mg/kg morphine alone

CC(C)C[C@H](NC(=O)[C@@H](O)[C@H](N)Cc1ccccc1)C(=O)O [Compound 1, (2S,3R)-3-amino-2-hydroxy-4-phenylbutanoyl-(S)-leucine]
Inhibitory activity to enkephalinase ID50 (enkephalinase): 0.62 milimol | Analgesia enhancement (%) (Wistar rats; [1]): 19.5%

CC(C)C[C@H](NC(=O)[C@H](O)[C@H](N)Cc1ccccc1)C(=O)O [Compound 2, (2S,3R)-3-amino-2-hydroxy-4-phenylbutanoyl-(R)-leucine]
Inhibitory activity to enkephalinase ID50 (enkephalinase): 2.40 milimol | Analgesia enhancement (%) (Wistar rats; [1]): 24.9%

N[C@H](Cc1ccccc1)[C@H](O)C(=O)N[C@H](CCC(=O)O)C(=O)O [Compound 3, (2S,3R)-3-amino-2-hydroxy-4-phenylbutanoyl-(R)-glutamic]
Inhibitory activity to enkephalinase ID50 (enkephalinase): 30.86 milimol

C[C@H](NC(=O)[C@H](O)[C@H](N)Cc1ccccc1)C(=O)O [Compound 4, (2S,3R)-3-amino-2-hydroxy-4-phenylbutanoyl-(R)-alanine]
Inhibitory activity to enkephalinase ID50 (enkephalinase): 5.98 milimol | Acute toxicity (survival) (ICR-strain mice): all the mice receiving 2 g/kg of AHPA-D-Ala survived

N=C(N)NCCC[C@H](NC(=O)[C@H](O)[C@H](N)Cc1ccccc1)C(=O)O [Compound 5, (2S,3R)-3-amino-2-hydroxy-4-phenylbutanoyl-(R)-arginine]
Inhibitory activity to enkephalinase ID50 (enkephalinase): 0.063 milimol | Activity to inhibit enkephalinase in vitro (in words) (enkephalinase; summary statement): high activity to inhibit enkephalinase | Analgesia enhancement (%) (Wistar rats; [1]): 13.6% | Enhancement of the analgesic activity of morphine (in words) (Wistar rats; summary statement): not significantly effective | Analgesic activity (%) (increase in tail-flick latency) (rats; dose 60 mcg intracisternally): 134.0% | Analgesic activity when administered intracisternally in the brain (in words) (rats; summary statement): high analgesic activity

CSCC[C@H](NC(=O)[C@H](O)[C@H](N)Cc1ccccc1)C(=O)O [Compound 6, (2S,3R)-3-amino-2-hydroxy-4-phenylbutanoyl-(R)-methionine]
Inhibitory activity to enkephalinase ID50 (enkephalinase): 2.54 milimol | Analgesia enhancement (%) (Wistar rats; [1]): 14.7%

CSCC[C@H](NC(=O)[C@@H](O)[C@H](N)Cc1ccccc1)C(=O)O [Compound 7, (2S,3R)-3-amino-2-hydroxy-4-phenylbutanoyl-(S)-methionine]
Inhibitory activity to enkephalinase ID50 (enkephalinase): 2.78 milimol | Analgesia enhancement (%) (Wistar rats; [1]): 10.5%

CC(C)C[C@H](NC(=O)[C@@H](O)[C@H](N)Cc1ccc(O)cc1)C(=O)O [Compound 8, (2S,3R)-3-amino-2-hydroxy-4-p-hydroxyphenylbutanoyl-(S)-leucine]
Inhibitory activity to enkephalinase ID50 (enkephalinase): 0.37 milimol | Analgesia enhancement (%) (Wistar rats; [1]): 34.5% | Analgesic activity (%) (increase in tail-flick latency) (rats; dose 500 mcg intracisternally): 47.0%

CC(C)C[C@H](NC(=O)[C@H](O)[C@H](N)Cc1ccc(O)cc1)C(=O)O [Compound 9, (2S,3R)-3-amino-2-hydroxy-4-p-hydroxyphenylbutanoyl-(R)-leucine]
Inhibitory activity to enkephalinase ID50 (enkephalinase): 20.68 milimol | Analgesia enhancement (%) (Wistar rats; [1]): 23.1%

N[C@H](Cc1ccc(O)cc1)[C@H](O)C(=O)N[C@H](Cc1ccccc1)C(=O)O [Compound 10, (2S,3R)-3-amino-2-hydroxy-4-p-hydroxyphenylbutanoyl-(R)-phenylalanine]
Analgesia enhancement (%) (Wistar rats; [1]): 27.0%

CC(C)C[C@H](NC(=O)[C@@H](O)[C@H](N)Cc1ccccc1)C(=O)N[C@H](CC(C)C)C(=O)O [Compound 11, (2S,3R)-3-amino-2-hydroxy-4-phenylbutanoyl-(S)-leucyl-(R)-leucine]
Inhibitory activity to enkephalinase ID50 (enkephalinase): 0.95 milimol | Analgesia enhancement (%) (Wistar rats; [1]): 5.2%

N[C@H](Cc1ccccc1)[C@H](O)C(=O)NCCC(=O)O [Compound 12, (2S,3R)-3-amino-2-hydroxy-4-phenylbutanoyl-β-alanine]
Analgesia enhancement (%) (Wistar rats; [1]): 12.0%

NC(=O)C[C@H](NC(=O)[C@H](O)[C@H](N)Cc1ccccc1)C(=O)O [Compound 13, (2S,3R)-3-amino-2-hydroxy-4-phenylbutanoyl-(R)-asparagine]
Inhibitory activity to enkephalinase ID50 (enkephalinase): 3.12 milimol

N[C@H](Cc1ccccc1)[C@H](O)C(=O)NCC(=O)O [Compound 14, (2S,3R)-3-amino-2-hydroxy-4-phenylbutanoyl-glycine]
Analgesia enhancement (%) (Wistar rats; [1]): 19.1%

N[C@H](Cc1ccccc1)[C@H](O)C(=O)O [Compound 15, (2S,3R)-3-amino-2-hydroxy-4-phenylbutanoic acid]
Analgesia enhancement (%) (Wistar rats; [1]): 14.1%

CN1CC[C@]23c4c5ccc(O)c4O[C@H]2[C@@H](O)C=C[C@H]3[C@H]1C5 [Morphine, reference compound]
Analgesia enhancement (%) (Wistar rats; comparative: morphine 0.5 mg/kg alone (control reference)): 0% | Analgesia enhancement (%) (Wistar rats; comparative: morphine 2 mg/kg alone): 28.4% | Analgesia enhancement (%) (Wistar rats; comparative: morphine 3 mg/kg alone): 35.1%
